Results reported in the supplement of paper PMC10331698.
± gives the standard deviation of the averaged measurements.

Columns and labels:
Assay in all cases: level (log10 ratio to DMSO vehicle control); higher = higher biomarker level / cell amount than vehicle control
[1] = compound: OCC(F)(F)C(F)(F)C(F)(F)C(F)(F)C(F)(F)C(F)(F)CO [1H,1H,8H,8H-Perfluorooctane-1,8-diol] (in DMSO)
Description: (§1)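 BioMAP Diversity Plus panel of 12 human primary cell co-culture systems (3C, 4H, LPS, SAg, BT, BF4T, BE3C, CASM3C, HDF3CGF, KF3CT, MyoF, Mphg). Compounds were added 1 h before stimulation and left for 24 h (MyoF 48 h; BT 72 h for soluble read-outs or 6 d for IgG). Biomarkers were read by ELISA, cytotoxicity by SRB, PBMC viability and proliferation by Alamar Blue. Each well value was divided by the mean of 8 DMSO control wells on the same plate and log10 transformed; duplicate blinded samples were tested at 4 concentrations.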

[2] = compound: CCOC(=O)CC(=O)C(F)(F)C(F)(F)F [Ethyl pentafluoropropionyl acetate] (in DMSO)
Description: as §1

Perfluoroundecanoic acid = compound: O=C(O)C(F)(F)C(F)(F)C(F)(F)C(F)(F)C(F)(F)C(F)(F)C(F)(F)C(F)(F)C(F)(F)C(F)(F)F [Perfluoroundecanoic acid] (in DMSO); conditions: 6700 nM
Description: as §1

[3] = compound: O=S(=O)(O)CCC(F)(F)C(F)(F)C(F)(F)C(F)(F)C(F)(F)C(F)(F)C(F)(F)C(F)(F)F [8:2 Fluorotelomer sulfonic acid] (in DMSO)
Description: as §1

[4] = compound: OCC(F)(F)OC(F)(F)C(F)(F)OC(F)(F)C(F)(F)OC(F)(F)CO [1H,1H,11H,11H-Perfluorotetraethylene glycol] (in DMSO)
Description: as §1

Perfluorononanoic acid = compound: O=C(O)C(F)(F)C(F)(F)C(F)(F)C(F)(F)C(F)(F)C(F)(F)C(F)(F)C(F)(F)F [Perfluorononanoic acid] (in DMSO)
Description: as §1

[5] = compound: CO[Si](C)(CCC(F)(F)C(F)(F)C(F)(F)C(F)(F)C(F)(F)C(F)(F)F)OC [Dimethoxymethyl((perfluorohexyl)ethyl)silane] (in DMSO)
Description: as §1

[6] = compound: O=C(O)CCC(F)(C(F)(F)F)C(F)(F)F [4,4-bis(Trifluoromethyl)-4-fluoropropanoic acid] (in DMSO)
Description: as §1

Test System	level (log10) ([1]; 6700 nM)	level (log10) ([1]; 20000 nM)	level (log10) ([1]; 60000 nM)	level (log10) ([2]; 6700 nM)	level (log10) ([2]; 20000 nM)	level (log10) ([2]; 60000 nM)	level (log10) (Perfluoroundecanoic acid)	level (log10) ([3]; 6700 nM)	level (log10) ([3]; 20000 nM)	level (log10) ([3]; 60000 nM)	level (log10) ([4]; 6700 nM)	level (log10) ([4]; 20000 nM)	level (log10) ([4]; 60000 nM)	level (log10) (Perfluorononanoic acid; 6700 nM)	level (log10) (Perfluorononanoic acid; 20000 nM)	level (log10) ([5]; 6700 nM)	level (log10) ([5]; 20000 nM)	level (log10) ([6]; 6700 nM)	level (log10) ([6]; 20000 nM)	level (log10) ([6]; 60000 nM)
BF4T:tPA	-0.011 ± 0.014	-0.024 ± 0.0057	-0.025 ± 0.0085	-0.0045 ± 0.0092	-0.0035 ± 0.0092	-0.0145 ± 0.011	-0.043 ± 0.037	-0.0045 ± 0.028	-0.0525 ± 0.0021	-0.0465 ± 0.016	-0.036 ± 0.0028	-0.0685 ± 0.043	-0.201 ± 0.035	-0.025 ± 0.027	-0.0995 ± 0.026	0.0005 ± 0.023	-0.015 ± 0.0028	-0.0185 ± 0.035	-0.019 ± 0.013	-0.0035 ± 0.023
BF4T:uPA	-0.005 ± 0.0042	-0.0035 ± 0.0092	-0.0035 ± 0.012	-0.0145 ± 0.023	-0.0045 ± 0.013	-0.0175 ± 0.025	0.0275 ± 0.0064	0.012 ± 0.0085	0.0055 ± 0.00071	0.0175 ± 0.0092	-0.0125 ± 0.018	-0.0155 ± 0.013	-0.0215 ± 0.0064	-0.01 ± 0.054	0.0335 ± 0.032	-0.0095 ± 0.00071	-0.014 ± 0.0085	-0.0015 ± 0.011	-0.0065 ± 0.016	-0.001 ± 0.0042
BT:B cell Proliferation	-0.029 ± 0.024	-0.007 ± 0.038	-0.0195 ± 0.052	0.012 ± 0.017	-0.006 ± 0.011	0.0035 ± 0.022	-0.0035 ± 0.025	0.016 ± 0.016	0.0415 ± 0.005	0.0475 ± 0.033	0.0215 ± 0.0021	-0.0175 ± 0.021	-0.051 ± 0.011	0.0085 ± 0.0092	0.0365 ± 0.022	0.0085 ± 0.011	0.023 ± 0.0042	0.0195 ± 0.0035	-0.0115 ± 0.035	0.0125 ± 0.0035
BT:PBMC Cytotoxicity	0.0065 ± 0.0092	-0.0145 ± 0.011	-0.0595 ± 0.011	-0.0045 ± 0.026	0.011 ± 0.0099	-0.0095 ± 0.029	0.0085 ± 0.029	0.006 ± 0.018	0.0115 ± 0.005	0.0505 ± 0.018	0.019 ± 0.0042	-0.018 ± 0.03	-0.0425 ± 0.028	-0.0065 ± 0.036	0.0515 ± 0.015	-0.0015 ± 0.0021	0.023 ± 0.0028	0.0145 ± 0.019	-0.0095 ± 0.023	-0.002 ± 0.057
BT:Secreted IgG	-0.0265 ± 0.016	-0.0095 ± 0.016	-0.098 ± 0.0099	0.024 ± 0.014	0.025 ± 0.0071	0.013 ± 0.0014	0.003 ± 0.011	0.032 ± 0.0099	-0.014 ± 0.031	-0.025 ± 0.014	-0.093 ± 0.0099	-0.135 ± 0.0071	-0.374 ± 0.055	0.0275 ± 0.021	0.0335 ± 0.026	0.0505 ± 0.0078	0.021 ± 0.018	0.019 ± 0.017	-0.053 ± 0.062	0.0025 ± 0.005
BT:sIL-2	0.0065 ± 0.063	0.008 ± 0.027	0.0055 ± 0.04	-0.058 ± 0.099	-0.0055 ± 0.04	-0.007 ± 0.069	0.03 ± 0.033	-0.023 ± 0.073	0.0195 ± 0.057	0.009 ± 0.011	0.0295 ± 0.12	0.0865 ± 0.1	0.005 ± 0.13	0.0075 ± 0.039	0.0105 ± 0.011	-0.0455 ± 0.12	0.0425 ± 0.026	-0.0855 ± 0.13	0.02 ± 0.12	0.005 ± 0.2
BT:sIL-6	-0.029 ± 0.045	-0.078 ± 0.016	-0.216 ± 0.054	0.019 ± 0.099	0.046 ± 0.11	-0.053 ± 0.1	0.0325 ± 0.019	0.015 ± 0.035	0.0445 ± 0.015	-0.005 ± 0.085	-0.025 ± 0.014	-0.101 ± 0.048	-0.302 ± 0.017	0.0215 ± 0.016	0.0145 ± 0.0092	-0.038 ± 0.076	0.0465 ± 0.14	0 ± 0.12	-0.0215 ± 0.069	-0.0665 ± 0.046
